Laboratory results as given in article PMC12566971, “Polyprenylated Acylphloroglucinols from Hypericum rochelii and Hypericum olympicum—Cytotoxic Effects on Non-Tumorigenic Cell Lines and Antibacterial Potential” (Pharmaceuticals, 2025).
Converted amounts (≈) assume the structure as drawn. Where two headings read alike, the source gives them in different places.

How the values were obtained:
[1] = tested on: tumor cell lines; conditions: ref [29]; cited from earlier work
[2] = tested on: Streptococcus pyogenes; conditions: ref [4],[29]; cited from earlier work
[3] = tested on: Limosilactobacillus fermentum; test: MIC evaluation on lactobacilli (broth microdilution); assay type: cell-based
Protocol: (§1) The MIC and MBC assessment on the pathogenic bacteria and the candidate probiotic lactic acid bacteria was carried out by the broth microdilution assay (BMD) and the agar plate assay, respectively, as described in [4]. The metabolic (dehydrogenase) activity of the lactic acid bacteria was assessed as described in [4]. Lactobacilli of different origins from the collection of Laboratory “Lactic Acid Bacteria and Probiotics”, the Stephan Angeloff Institute of Microbiology, Bulgarian Academy of Sciences (Sofia, Bulgaria), were selected (Table 13). The strains had been assessed previously, as candidate probiotics, according to the in vitro criteria recommended by the EFSA and the WHO guidelines. They were stored at −20 °C in MRS broth (Merck Group, Darmstadt, Germany) supplemented with 20% v/v sterile glycerol. Prior to the experiments, lactobacilli were subcultured twice in MRS broth (GM369, HiMedia, Mumbai, India) at 37 °C. An overnight exponential-phase culture (5% v/v inoculum) was used for the tests.

[4] = tested on: Lactiplantibacillus plantarum; test: as above; assay type: cell-based
Protocol: as §1

[5] = tested on: Enterococcus faecalis; conditions: ref [4],[29]; cited from earlier work
[6] = tested on: human CYP450 3A4 isoform; test: ELISA for cytochrome P450 3A4 in HEPG2 cells; assay type: in vitro ADME
Protocol: The effect on CYP450 was tested using the ELISA method on the HEPG2 liver cell line. As mentioned, it has weak or absent expression of the CYP450 superfamily, e.g., CYP3A4, CYP1A2, etc., and that low basal activity makes it a good model for studies of CYP inducers. In addition, these cells have the advantage of immortalization due to their cancerous nature. The standard curves after the two ELISA tests (Figure S7) were prepared as a standard dose–response curve, also called a four-parameter logistic (4-PL) curve.
The effect on human cytochrome P450 3A4, the major member of the CYP450 superfamily of enzymes, which is predominantly found in the liver and metabolizes approximately half of the drugs metabolized by CYP450 enzymes, was assayed using the CYP3A4 ELISA Kit (DL-CYP3A4-Hu, DLdevelop, Kelowna, BC, Canada). Sample selection and initial preparation were as for the total cytochrome ELISA. The experiment was performed according to the manufacturer’s instructions. This assay is a sandwich enzyme immunoassay based on the binding of CYP3A4 in standards and samples to a biotin-conjugated antibody specific for CYP3A4. […] The reaction was stopped by adding sulfuric acid solution, and the plate was read at 450 nm on a microplate reader ELx800 (BioTek Instruments, Inc.). The CYP3A4 concentration was determined by comparing the O.D. of the samples with the standard curve.

[7] = tested on: CCL-1 cell line; test: Live-cell imaging with Hoechst for apoptosis detection; assay type: cell-based; conditions: low MIC doses
Protocol: Cell suspension was seeded in the same manner as for MTT, but 50 µL per well in 96-well clear bottom plates. […] For the hypertonic buffer, the exposure time was 2 h, and the cells were plated at twice the concentration as for the MTT and cytopathic tests in order to comply with the kit protocol.
At least two wells were seeded as replicates, and at least two photographs were taken for all samples and treatments, stained with dyes or not.

[8] = tested on: Human gingival fibroblasts (HGF); test: MTT assay for cytotoxicity; assay type: cell-based; conditions: for IC50: Homo sapiens, Fibroblast
Protocol: (§2) The MTT assay was performed according to Annex C, ISO 10993-5 [56] as in [116]. The panel of non-tumorigenic cell lines consisted of one murine (CCL-1 fibroblasts, which are recommended as a standard for cytotoxicity evaluation in Annex C of ISO 10993-5 [56]) and four human cell lines—HaCaT (immortalized epidermal keratinocytes), HGF (gingival fibroblasts), HEK-293 (embryonic cells from kidney epithelium), and HEPG2 (hepatoblastoma). Although technically a cancer cell line, HEPG2 is non-tumorigenic and retains many hepatocyte-related features in its proteome and a high degree of morphological and functional differentiation, also being a stage one hepatoblastoma.
(§3) CCL-1 was purchased from ATCC and HaCaT and HGF were bought from CLS Cell Lines Service (GmbH, Eppelheim, Germany). HEK-293 and HEPG2 were obtained from DSMZ. The cell culture medium for HaCaT and HEPG2 was Dulbecco’s Modified Eagle Medium (DMEM) with 4.5 g/L glucose (DMEM-HA). For HGF it was DMEM/F-12 (DMEM-12-A, a 1:1 mixture of DMEM and Ham’s F-12 medium). The cell medium for CCL-1 and HEK-293 was Eagle’s Minimum Essential Medium (MEM) (MEM-A). Ten percent heat-inactivated fetal bovine serum (FBS) was added to all media but to the one for the CCL-1 cells, to which 10% heat-inactivated horse serum was added. All media were supplemented with 2 mM L-glutamine and Penicillin/Streptomycin (Pen/Strep, 100×). The cell culture media, sera, and additives were from Capricorn Scientific (Düsseldorf, Germany).
(§4) GraphPad Prism software version 9 (GraphPad Software Inc., San Diego, CA, USA) was used to calculate the IC50 values from the MTT assays as in [116], as well as the MTC values, and the ELISA standard curves. The MTC values are, according to ISO 10993-5, the maximum concentration at which at least 70% of the cells are viable (nonlin fit, range).

[9] = tested on: Human embryonic kidney-293 (HEK-293); test: MTT assay for cytotoxicity; assay type: cell-based; conditions: for IC50: Homo sapiens, HEK293
Protocol: as §2, §3, §4

[10] = at least 70% of cells viable, ISO 10993-5

For `CC(C)=CCCC1(C)C(CC=C(C)C)CC2C(=O)C1(C(=O)C(C)C)C(=O)C(CC=C(C)C)=C2O` (stereo not drawn) [Olympiforin B], the IC50 [1] is listed as 1.3 µM, the “MIC on bacteria, S. pyogenes” value [2] is listed as 4 µg/mL (≈ 8.53 µM) and the MIC ([3]; strain Lf53, read-out: MIC, Lf53) is listed as 2 µg/mL (≈ 4.27 µM). For the same compound, the MIC ([3]; strain Lf98, read-out: MIC, Lf98) was 2 µg/mL (≈ 4.27 µM), the MIC ([4]; strain Lpl 11, read-out: MIC, Lpl 11) was 2 µg/mL (≈ 4.27 µM) and the MIC ([4]; strain Lpl 25, read-out: MIC, Lpl 25) was 2 µg/mL (≈ 4.27 µM). For the same compound, the MIC ([4]; strain Lpl.AC11S, read-out: MIC, Lpl.AC11S) was 2 µg/mL (≈ 4.27 µM), the MIC ([4]; strain Lpl.L6, read-out: MIC, Lpl.L6) was 4 µg/mL (≈ 8.53 µM) and the “MIC on bacteria, E. faecalis” value [5] was 4 µg/mL (≈ 8.53 µM). The “CYP450 3A4, Mean Diff. Co vs. agent (Tukey)” value ([6]; 2×MIC, control minus treated) was 0.000325, the “Induction of CYP450 3A4” value ([6]; HEPG2, 24 h, concentrations inhibiting S. aureus) was “hardly induce” and the “Nuclear and DNA condensation (signs of apoptosis)” value [7] was “did not cause any nuclear and DNA condensation”. The IC50 ([8]; MTT assay) was 18 µg/mL, the IC50 ([8]; converted to µM) was 38.4 µM and the “Maximum tolerated concentration (MTC), HGF” value [8, 10] was 16.06 µg/mL. For the same compound, the IC50 ([9]; MTT assay) was 0.67 µg/mL, the IC50 ([9]; converted to µM) was 1.43 µM and the “Maximum tolerated concentration (MTC), HEK-293” value [9, 10] was 0.46 µg/mL.
